Reference: patent publication US11174223B2, “Compositions, methods, and systems for the synthesis and use of imaging agents” (Lantheus Medical Imaging, Inc., priority 2010, dated 2021)
Where a name gives a salt, the structure may show the parent alone.

Legend:
[1] = Thermal stability of salt forms; assay type: physicochemical; conditions: salt form of imaging agent precursor-1
Description: (§1) Selected physical properties of the salts of Examples 5-6 and 8-12, determined using established characterization methods, are tabulated below (Table 1).

[2] = Solubility of salt forms in acetonitrile; assay type: physicochemical; conditions: organic solvent or mixture, read-out: Solubility (Acetonitrile; mg/mL)
Description: as §1

[3] = Stability of salt forms to GVS and 40° C./75% RH; assay type: physicochemical; conditions: salt form of imaging agent precursor-1
Description: as §1

[4] = Hygroscopicity of salt forms of imaging agent precursor-1; assay type: physicochemical; conditions: salt form of imaging agent precursor-1
Description: as §1

NET [5] = target: T1, NET (Homo sapiens, UniProt P23975); experiment: Effect of heart failure medications on NET mediated imaging agent-1 uptake in SK-N-SH cells; assay type: cell-based; set-up: endogenous in cells; host or cells: SK-N-SH; conditions: even at the highest concentrations tested (1000 μM)
T1 sequence (P23975 whole entry): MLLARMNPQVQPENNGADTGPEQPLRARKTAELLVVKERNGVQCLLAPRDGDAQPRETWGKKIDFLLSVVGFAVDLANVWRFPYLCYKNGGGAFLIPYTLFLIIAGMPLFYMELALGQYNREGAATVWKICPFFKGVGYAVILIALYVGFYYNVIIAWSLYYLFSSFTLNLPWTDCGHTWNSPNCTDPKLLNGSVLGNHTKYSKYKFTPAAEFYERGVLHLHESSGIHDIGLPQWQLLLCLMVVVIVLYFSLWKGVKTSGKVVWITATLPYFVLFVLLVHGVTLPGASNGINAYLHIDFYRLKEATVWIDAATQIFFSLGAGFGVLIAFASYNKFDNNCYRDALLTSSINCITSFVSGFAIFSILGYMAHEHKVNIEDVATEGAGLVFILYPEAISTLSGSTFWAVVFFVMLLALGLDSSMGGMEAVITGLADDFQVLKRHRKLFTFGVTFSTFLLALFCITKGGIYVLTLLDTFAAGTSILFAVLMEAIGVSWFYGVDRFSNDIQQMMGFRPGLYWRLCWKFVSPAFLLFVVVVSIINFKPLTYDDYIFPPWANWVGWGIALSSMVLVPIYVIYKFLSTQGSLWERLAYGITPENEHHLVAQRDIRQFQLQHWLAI

NET [6] = target: T1, NET; experiment: NET mediated uptake kinetics in SK-N-SH cells; assay type: cell-based; set-up: endogenous in cells; host or cells: SK-N-SH
Method: (§2) The affinity (Ki) was determined in a competition binding assay by incubating ^19F-imaging agent-1, a cold analog of imaging agent-1, or NE with ^3H-desmethylimipramine in cell membrane overexpressing human NET. The uptake selectivity was assessed by measuring imaging agent-1 or ^3H-NE cell uptake with and without pretreatment of desipramine, a selective NET inhibitor, in SK—N—SH (human neuroblastoma) and PC-12 (rat pheochromocytoma) cells. In SK—NSH cells, the uptake kinetics (Km and Vmax) were evaluated by measuring NET mediated uptake of imaging agent-1 or NE at various concentrations. Imaging agent-1 cardiac image quality was evaluated by PET imaging (˜1.5 mCi, i.v.) in rabbits in the presence and absence of desipramine (1 mg/kg).

NET [7] = target: T2, NET (Rattus norvegicus, UniProt Q63380); experiment: Cell uptake selectivity with and without desipramine in PC-12 cells; assay type: cell-based
T2 construct: endogenous in cells; host or cells: PC-12
T2 sequence (Q63380 1-617): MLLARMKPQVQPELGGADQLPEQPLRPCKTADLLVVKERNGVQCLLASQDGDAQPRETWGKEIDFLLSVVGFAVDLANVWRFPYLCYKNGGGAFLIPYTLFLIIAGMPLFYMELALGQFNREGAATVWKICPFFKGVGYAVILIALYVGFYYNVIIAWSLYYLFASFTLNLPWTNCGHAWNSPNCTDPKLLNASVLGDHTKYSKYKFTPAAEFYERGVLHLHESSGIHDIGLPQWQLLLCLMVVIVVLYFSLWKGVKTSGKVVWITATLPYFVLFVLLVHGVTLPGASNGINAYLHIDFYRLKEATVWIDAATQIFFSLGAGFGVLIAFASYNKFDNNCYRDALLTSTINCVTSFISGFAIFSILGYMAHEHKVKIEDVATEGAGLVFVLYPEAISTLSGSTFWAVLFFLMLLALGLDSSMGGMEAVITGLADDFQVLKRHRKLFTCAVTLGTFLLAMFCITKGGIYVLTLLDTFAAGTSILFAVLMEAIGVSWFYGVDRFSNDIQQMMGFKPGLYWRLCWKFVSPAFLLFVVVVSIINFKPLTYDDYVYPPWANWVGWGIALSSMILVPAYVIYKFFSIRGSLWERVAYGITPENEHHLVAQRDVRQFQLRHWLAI
Method: as §2

NET [8] = target: T1, NET; experiment: Cell uptake selectivity with and without desipramine in SK-N-SH cells; assay type: cell-based; set-up: endogenous in cells; host or cells: SK-N-SH
Method: as §2

[9] = target: T3, norepinephrine transporter (NET) (Homo sapiens, UniProt P23975); experiment: Uptake and uptake kinetics in SH-SY5Y human neuroblastoma cells; assay type: cell-based; conditions: SH-SY5Y cells
T3 construct: endogenous in cells; host or cells: SH-SY5Y
T3 sequence (P23975 whole entry): as the sequence (P23975 whole entry) above
Method: (§3) Imaging agent-1 was designed as a substrate for the norepinephrine transporter (NET) to image the cardiac sympathetic nervous system. […] These values were similar to that of MIBG (2.12±0.26 μM and 4.76±0.78 pmol/min/million cells). In animals, tissue biodistribution of imaging agent-1 was assessed by tissue sampling at 15- and 60-minute following administration. Heart uptake was 2.36±0.16 and 2.17±0.12% injected dose per g tissue (% ID/g) in rats and 0.25±0.03 and 0.28±0.03% ID/g in rabbits. In rabbits, desipramine (1 mg/kg) inhibited heart uptake of imaging agent-1 by 68% and ^123I-MIBG uptake by 55% at 1 hour post dose.

[10] = Heart uptake by tissue sampling in Dahl Salt Sensitive (DSS) rats, a model of heart failure; assay type: in vivo
Method: The prognostic value of imaging agent-1 was evaluated in Dahl Salt Sensitive (DSS) rats, a rat model of heart failure (HF), and compared with ^123I-meta-iodobenzylguanidine (^123I-MIBG). DSS rats were fed either a low salt (0.1% as control) or high salt diet (8%) for 5 or 9 weeks. To determine the progression of HF in these rats, plasma norepinephrine levels, and heart and lung weights were measured. Compared to low salt diet groups, DSS rats fed a high salt diet for 5 weeks had marked increases in norepinephrine levels (258±28 vs. 1242±184 pg/mL) and heart to body weight ratio (3.3±0.1 vs. 4.5±0.3 mg/g). By 9 weeks, the norepinephrine levels (656±219 vs. 1508±165 pg/mL) and heart to body weight ratio (3.2±0.1 vs. 6.1±0.3 mg/g) had increased further and the lung to body weight ratio had become elevated (3.9±0.1 vs. 14.0±1.4 mg/g). […] Imaging agent-1 and MIBG heart uptake was examined in early and late stage HF rats by tissue sampling after intravenous administration. The uptake was measured using a gamma counter and expressed as differential absorption ratio (DAR). The imaging agent-1 heart uptake decreased following progression of HF from early to late stage HF (low salt group vs. high salt group: 6.9±0.6 vs. 5.1±0.6 and 8.1±0.2 vs. 3.1±0.2 DAR at 5 and 9 weeks respectively).

[11] = target: T4, norepinephrine transporter (NET), uptake 1 (Oryctolagus cuniculus, UniProt G1TDF9); experiment: Heart uptake in rabbits after uptake 1 blockade (desipramine) or 6-hydroxydopamine sympathetic denervation; assay type: in vivo; conditions: rabbits, desipramine 1 mg/kg, 1 hour post dose
T4 construct: from tissue; host or cells: rabbit heart, in vivo
T4 sequence (G1TDF9 1-617): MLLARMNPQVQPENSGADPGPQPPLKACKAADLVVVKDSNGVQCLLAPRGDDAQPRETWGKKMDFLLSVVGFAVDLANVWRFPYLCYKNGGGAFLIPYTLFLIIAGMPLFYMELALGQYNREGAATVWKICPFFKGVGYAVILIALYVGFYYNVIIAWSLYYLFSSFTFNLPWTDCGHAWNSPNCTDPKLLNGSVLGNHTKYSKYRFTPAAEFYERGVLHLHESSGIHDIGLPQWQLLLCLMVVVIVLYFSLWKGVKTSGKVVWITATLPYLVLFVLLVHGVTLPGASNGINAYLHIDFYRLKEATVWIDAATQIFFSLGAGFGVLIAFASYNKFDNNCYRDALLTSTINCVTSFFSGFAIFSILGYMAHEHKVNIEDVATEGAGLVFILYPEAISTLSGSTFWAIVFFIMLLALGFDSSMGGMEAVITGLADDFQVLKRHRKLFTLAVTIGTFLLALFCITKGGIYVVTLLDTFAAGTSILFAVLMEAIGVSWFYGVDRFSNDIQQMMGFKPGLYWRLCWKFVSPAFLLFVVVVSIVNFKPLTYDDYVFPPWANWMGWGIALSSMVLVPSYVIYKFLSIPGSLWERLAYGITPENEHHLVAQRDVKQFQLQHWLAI
Method: as §3
(§4) Desipramine, a selective uptake 1 inhibitor, was used to block cardiac uptake 1 in rats (10 mg/kg, ip), rabbits (1 mg/kg iv), and NHPs (0.5 mg/kg, iv). 6-hydroxydopamine, a neurotoxin, was injected to induce sympathetic denervation in rats (100 mg/kg ip for 7 days) and rabbits (25 mg/kg iv on day 1, 2, 7, and 8). Imaging agent-1 heart uptake in comparison with MIBG was assessed by tissue sampling at 60 minutes post imaging agent injection. Imaging was also performed with (2-tert-butyl-4-chloro-5-[4-(2-[^18F]fluoroethoxymethyl)-benzyloxy]-2H-pyridazin-3-1.

[12] = Dofetilide induced ECG changes (arrhythmia susceptibility) in RCSD rabbits; assay type: in vivo; conditions: RCSD versus control
Method: (§5) Rabbit models of RCSD were developed by applying phenol directly on the surface of the left ventricular wall during a sternotomy. Two and twelve weeks following the procedure, imaging agent-1 cardiac PET imaging (˜1.5 mCi, iv) were performed in these rabbits. The myocardial area with radioactivity ≥50% maximum was quantified as innervated region for comparison. To evaluate susceptibility of arrhythmia in rabbits, dofetilide (10 and 40 μg/kg iv, a delayed IKr inhibitor) induced changes were assessed by measuring ECG including heart rate (HR), QTc interval (corrected by Fridericia method), and frequency of arrhythmia.

[13] = Cardiac PET imaging in rabbit models of regional and systemic cardiac sympathetic denervation (CSD); assay type: in vivo, rabbits; conditions: rabbits
Method: Rabbit models of regional and systemic CSD were used. To develop regional CSD, a median sternotomy was performed and phenol (89% in liquid) was pained on the anterior and posterior walls of the left ventricle. To develop systemic denervation the neurotoxin, 6-hydroxydopamine (25 mg/kg on day 1, 2, 7 and 8), was administered intravenously. Two weeks following these procedures, rabbits were imaged with imaging agent-1 (˜1.5 mCi, i.v.) using a microPET camera for 30 minutes.

[14] = tested on: norepinephrine transporter (NET), uptake 1; experiment: Heart uptake in rats after uptake 1 blockade (desipramine) or 6-hydroxydopamine sympathetic denervation; assay type: in vivo; conditions: sympathetic denervated rats
Method: as §4

[15] = tested on: norepinephrine transporter (NET), uptake 1; experiment: Heart uptake in rabbits after uptake 1 blockade (desipramine) or 6-hydroxydopamine sympathetic denervation; assay type: in vivo; conditions: denervated rabbits and uptake 1 blocked rabbits and NHPs
Method: as §3, §4

[16] = Cardiac PET imaging in rabbit model of regional cardiac sympathetic denervation (RCSD) and re-innervation; assay type: in vivo, rabbits; conditions: all rabbits including those with RCSD regions
Method: as §5

CS(=O)(=O)O.N=C(N)NCc1ccc(OCCCOS(=O)(=O)c2ccc(Br)cc2)c(Br)c1 [Mesylate, 3-(2-Bromo-4-(guanidinomethyl)phenoxy)propyl 4-bromobenzenesulfonate, methanesulfonic acid salt]
Thermal stability, First event at [1]: 152 °C
solubility [2]: 1.28 mg/mL
Stability to GVS and 40° C./75% RH [3]: Stable
Hygroscopicity [4]: Slight

N=C(N)NCc1ccc(OCCCOS(=O)(=O)c2ccc(Br)cc2)c(Br)c1 [Sulfate, 3-(2-Bromo-4-(guanidinomethyl)phenoxy)propyl 4-bromobenzenesulfonate, sulfuric acid salt]
Thermal stability, First event at [1]: 103 °C
Hygroscopicity [4]: Hygroscopic

C[C@H](CS)C(=O)N1CCC[C@H]1C(=O)O [captopril]
Effect on imaging agent-1 uptake (NET [5]): no effect

N=C(N)NCc1ccc(OCCCOS(=O)(=O)c2ccc(Br)cc2)c(Br)c1 [Phosphate, 3-(2-Bromo-4-(guanidinomethyl)phenoxy)propyl 4-bromobenzenesulfonate, phosphoric acid salt]
Thermal stability, First event at [1]: 155 °C
solubility [2]: 0.3 mg/mL
Stability to GVS and 40° C./75% RH [3]: Stable
Hygroscopicity [4]: Slight

N=C(N)NCc1ccc(OCCCOS(=O)(=O)c2ccc(Br)cc2)c(Br)c1.O=C(O)C(F)(F)F [Trifluoroacetate, 3-(2-Bromo-4-(guanidinomethyl)phenoxy)propyl 4-bromobenzenesulfonate, trifluoroacetate salt]
Thermal stability, First event at [1]: 142 °C
solubility [2]: 4.68 mg/mL
Stability to GVS and 40° C./75% RH [3]: Stable
Hygroscopicity [4]: Slight

CC(=O)O.N=C(N)NCc1ccc(OCCCOS(=O)(=O)c2ccc(Br)cc2)c(Br)c1 [Acetate, 3-(2-Bromo-4-(guanidinomethyl)phenoxy)propyl 4-bromobenzenesulfonate, acetic acid salt]
solubility [2]: 0.4 mg/mL

CCCCc1nc(Cl)c(CO)n1Cc1ccc(-c2ccccc2-c2nn[nH]n2)cc1 [Losartan, losartan]
Effect on imaging agent-1 uptake (NET [5]): no effect

NC[C@H](O)c1ccc(O)c(O)c1 [NE, norepinephrine, reference compound]
Vmax (NET mediated uptake) (NET [6]): 6.2±0.7 pMol/million cells/min
Inhibition of cell uptake by blockade of NET (desipramine) (NET [7]): 93±1%
Inhibition of cell uptake by blockade of NET (desipramine) (NET [8]): 97±1%

N=C(N)NCc1cccc([123I])c1 [MIBG, ^123I-meta-iodobenzylguanidine]
Vmax (uptake kinetics) [9]: 4.76±0.78 pmol/min/million cells
Heart uptake, differential absorption ratio (DAR) ([10]; high salt group, 5 weeks (early stage HF)): 3.8±0.5 DAR
Heart uptake, differential absorption ratio (DAR) ([10]; high salt group, 9 weeks (late stage HF)): 2.3±0.3 DAR
Heart uptake, differential absorption ratio (DAR) ([10]; low salt group, 5 weeks): 7.3±0.1 DAR
Heart uptake, differential absorption ratio (DAR) ([10]; low salt group, 9 weeks): 7.9±0.5 DAR
Inhibition of heart uptake by desipramine (uptake 1 blockade) [11]: 55%

Cl.N=C(N)NCc1ccc(OCCCOS(=O)(=O)c2ccc(Br)cc2)c(Br)c1 [Hydrochloride, 3-(2-Bromo-4-(guanidinomethyl)phenoxy)propyl 4-bromobenzenesulfonate, hydrochloric acid salt]
Thermal stability, First event at [1]: 117 °C
Stability to GVS and 40° C./75% RH [3]: Stable
Hygroscopicity [4]: Indicates hydrate

CN(CCOc1ccc(NS(C)(=O)=O)cc1)CCc1ccc(NS(C)(=O)=O)cc1 [Dofetilide, dofetilide]
Induced QTc prolongation, frequency of premature ventricular contraction, and torsades de pointes ([12]; 10 and 40 μg/kg iv): more prominent in the RCSD group than in control
Induced changes in HR [12]: comparable in the two groups

CC(C)(C)n1ncc(OCc2ccc(COCC[18F])cc2)c(Cl)c1=O [(2-tert-butyl-4-chloro-5-[4-(2-[^18F]fluoroethoxymethyl)-benzyloxy]-2H-pyridazin-3-1, reference compound]
Cardiac perfusion imaging, control versus denervated rabbits [13]: no differences were observed
Cardiac imaging, myocardial activity versus control [14]: comparable myocardial activity
Cardiac imaging, myocardial activity [15]: marked activity reduction
Perfusion imaging, myocardial distribution [16]: homogeneous myocardial distribution

N=C(N)NCc1ccc(OCCCOS(=O)(=O)c2ccc(Br)cc2)c(Br)c1.O=C(O)c1ccccc1 [Benzoate, 3-(2-Bromo-4-(guanidinomethyl)phenoxy)propyl 4-bromobenzenesulfonate, benzoic acid salt]
solubility [2]: 1.5 mg/mL

N=C(N)NCc1cccc(I)c1 [MIBG, ^123I-meta-iodobenzylguanidine]
Km [9]: 2.12 ± 0.26 µM
